These results are taken from US20160122313A1, “COMPOSITIONS AND METHODS FOR THE TREATMENT OF DIABETES” (priority 2014, published 2016).

In one assay the test system is Diabetic Rats. In words: Effect on serum glucose, body weight and HbA1c in STZ/nicotinamide-induced type 2 diabetic rats, 4 weeks treatment. The class given is in vivo, rat. The settings on record: diabetic rats (STZ 65 mg/kg + NIC 150 mg/kg i.p.), 30 mg/kg/day; for Glucose: serum glucose. The procedure: (§1) Effect of Nateglinide alone and Formula I (1-2) on Serum Glucose, Body Weights and HbAlc in Non-Diabetic and Diabetic Rats:
Type 2 Diabetes was induced in overnight fasted rats by a single intraperitoneal injection of 65 mg/kg Streptozotocin (STZ), 15 min after the i.p administration of 150 mg/kg of Nicotinamide (NIC). After 7 days following STZ and NIC administration, blood was collected from tail vein and serum samples were analyzed for blood glucose. Animals showing fasting blood glucose higher than 300 mg/dl were considered as diabetic and were used for the study.
(§2) Methods: Animals were divided in to following groups, each group containing 6 animals and the treatment period for whole study was 4 weeks.
Group 4: Diabetic control, single injection of STZ (65 mg/kg, i.p) and NIC (150 mg/kg, i.p, DB-CON).
Group 5: Diabetic rats (DB) treated with NAT (30 mg/kg/day, DB-NAT).
Group 6: Diabetic rats treated with Formula I (1-2) (30 mg/kg/day, p.o)
(§3) Effect of Nateglinide (30 mg/kg/day, p.o) and Formula I (30 mg/kg/day, p.o) on Changes in Body Weight, Serum Glucose and HbAlc Level in Nondiabetic and Diabetic Rats.

The next assay deals with Non-Diabetic Rats. In words: Effect on serum glucose, body weight and HbA1c in nondiabetic rats, 4 weeks treatment. The class given is in vivo, rat. Particulars: 30 mg/kg/day p.o.; for Glucose: serum glucose. The procedure:
as §1, §2
Group 1: Nondiabetic (ND) control, received CMC as vehicle (1 ml/kg/day, p.o, NDCON).
Group 2: Nondiabetic group treated with Nateglinide (NAT) (30 mg/kg/day, p.o, ND-NAT).
Group 3: Nondiabetic group treated with Formula I (1-2) (30 mg/kg/day, p.o)
as §3

On to `CC(C)[C@H]1CCC[C@H](C(=O)N[C@H](Cc2ccccc2)OC(=O)OC(=O)CCCC[C@]2(C)CCSS2)C1` [FORMULA I], for which, in the assay with Diabetic Rats, the “(%, HbA1c)” value is given as 4.01 +/− 0.72% and the “Glucose” value is 99.1 ± 12.1 mg/dL. In the assay on Non-Diabetic Rats, the “(%, HbA1c)” value was 4.21 +/− 0.67%; the “Body weight (gm)” value was 265.1 +/− 9.3 gm; the “Glucose” value came out at 77.87 ± 9.67 mg/dL.
With `CC(C)[C@H]1CC[C@H](C(=O)N[C@H](Cc2ccccc2)C(=O)O)CC1` [NAT, Nateglinide], in the assay with Diabetic Rats, the “(%, HbA1c)” value is on record as 6.78 +/− 0.98%; the “Body weight (gm)” value is listed as 219.8 +/− 50.28 gm; the “Glucose” value came to 170.7 ± 13.21 mg/dL. Also, in the assay on Non-Diabetic Rats, the “(%, HbA1c)” value is given as 5.04 +/− 0.30%; the “Body weight (gm)” value is recorded as 224.0 +/− 7.23 gm; the “Glucose” value was 70.21 ± 5.6 mg/dL.
